Laboratory results from patent US20070149580A1, “USE OF PEROXISOME PROLIFERATOR ACTIVATED RECEPTOR DELTA AGONISTS FOR THE TREATMENT OF MS AND OTHER DEMYELINATING DISEASES” (AVENTIS PHARMACEUTICALS INC., priority 2004, published 2007).

What was measured:
[1] = system: cultured rat oligodendrocytes; test: Quantitative PCR of MBP mRNA in cultured rat oligodendrocytes; type: cell-based; conditions: FIGS. 2 and 3
From the text: • 1. Primary rat oligodendrocyte progenitor cells are obtained from the neocortex of newborn (postnatal days 2-3) rats or mice and are enriched, after removal of microglia, by mechanical separation from the astrocytic monolayer using a modification of the technique originally described by McCarthy and de Vellis (1980). • 2. Remove the meninges from neonatal rat brain and mechanically dissociate tissue. Plate cells on T75 flasks and feed cells with DMEM/F12+10% FBS. • 3. Collect oligodendrocytes growing on the astrocyte bed layer by shaking-off method fourteen days after the original prep date. Centrifuge the suspension and resuspend the cell pellet in serum free media (SFM; DMEM combined with 25 μg/ml transferring, 30 nM triiodothyronine, 20 nM hydrocortisone, 20 nM progesterone, 10 nM biotin, 1× trace elements, 30 nM selenium, 1 μg/ml putrescine, 0.1% BSA, 5 U/ml PenStrep, 10 μg/ml insulin) supplemented with the following growth factors: Platelet derived growth factor-AA (PDGF) and fibroblast growth factor-2 (FGF). • 4. Plate the cells on PDL-coated dishes and incubate at 37° C. with 6-7% CO2. • 5. Media components are replaced every 48 hr to keep the cells in a progenitor state. Progenitor Cell Passaging to Increase Cell Numbers for Screening Assays: • 1. […]
• 1. […] PPAR delta pathway member transcript expression is quantitated using Sybr Green PCR Master Mix. • 4. […]

Human PPAR gamma = target: T1, Human PPAR gamma (Homo sapiens, UniProt P37231); test: Cellular PPAR gamma luciferase reporter assay; type: cell-based
T1 construct: expressed in transfected cells
T1 sequence (P37231 1-505): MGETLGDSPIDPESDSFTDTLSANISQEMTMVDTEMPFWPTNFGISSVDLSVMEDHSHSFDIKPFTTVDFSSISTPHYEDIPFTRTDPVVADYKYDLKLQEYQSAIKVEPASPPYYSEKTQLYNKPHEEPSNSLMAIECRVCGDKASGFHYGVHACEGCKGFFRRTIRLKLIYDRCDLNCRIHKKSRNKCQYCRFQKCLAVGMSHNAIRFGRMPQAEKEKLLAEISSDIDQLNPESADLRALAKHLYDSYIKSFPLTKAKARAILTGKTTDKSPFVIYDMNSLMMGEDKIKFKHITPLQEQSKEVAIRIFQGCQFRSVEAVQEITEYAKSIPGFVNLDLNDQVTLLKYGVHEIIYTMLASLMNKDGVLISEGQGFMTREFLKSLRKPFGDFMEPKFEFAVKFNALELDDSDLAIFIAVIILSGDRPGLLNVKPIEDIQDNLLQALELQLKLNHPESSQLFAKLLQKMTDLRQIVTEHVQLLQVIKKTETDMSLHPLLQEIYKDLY
Procedure: Cell Based PPAR Gamma Assay Protocol
To perform cell based assays a luciferase assay is performed in 96 well plates as follows:
Dilution steps and addition of diluted compounds is done using a Beckman Biomek 2000 or Beckman FX robot.
• Aspirate medium from cells • Freeze plates at −20° C. (optional) • Thaw plates for 30 min (if necessary) • Add 50 μl Bright-Glo-Luciferase Assay Reagent (Promega, Cat. No. E2650) • Incubate for 10 min in the dark • Measure luminescence 2 sec per well (Wallac Microbeta) Data Analysis: […]

human PPAR delta = target: T2, human PPAR delta (Homo sapiens, UniProt Q03181); test: cell-based
T2 sequence (Q03181 139-441): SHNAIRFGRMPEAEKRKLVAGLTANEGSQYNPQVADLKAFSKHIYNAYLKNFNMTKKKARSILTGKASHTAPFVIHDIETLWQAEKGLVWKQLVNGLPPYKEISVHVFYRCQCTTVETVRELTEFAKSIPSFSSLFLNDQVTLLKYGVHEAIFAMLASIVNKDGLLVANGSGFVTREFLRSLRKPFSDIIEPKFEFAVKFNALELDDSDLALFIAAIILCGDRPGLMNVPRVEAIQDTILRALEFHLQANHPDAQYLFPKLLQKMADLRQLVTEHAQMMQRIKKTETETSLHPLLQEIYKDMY

In the case of `Cc1cc(SCc2sc(-c3ccc(C(F)(F)F)cc3)nc2C)ccc1OCC(=O)O` [Compound 1], the “MBP mRNA” value [1] is reported as “enhancement”.
For `CCCc1c(OCCCOc2ccc(OCC(=O)O)cc2)ccc(C(C)=O)c1O` [Compound 2], the EC50 (Human PPAR gamma) was 1100 nM, the EC50 (human PPAR delta) was 39 nM and the “MBP mRNA” value [1] was “enhancement”.
